The test system of one series is EngAL. The experiment in a line: steady-state kinetics, pNP release at […] nm. The following applies: 50 mM sodium phosphate pH 7.5, 5 mM MgCl2, 25°C. In kind it is biochemical, Alcaligenes sp.
The next series addresses EngCP (Clostridium perfringens, UniProt A0A0H2YQ40). In kind it is biochemical.
Another series addresses T1, EngEF (Enterococcus faecalis, UniProt Q833X5).
T1 sequence (Q833X5 1-1324): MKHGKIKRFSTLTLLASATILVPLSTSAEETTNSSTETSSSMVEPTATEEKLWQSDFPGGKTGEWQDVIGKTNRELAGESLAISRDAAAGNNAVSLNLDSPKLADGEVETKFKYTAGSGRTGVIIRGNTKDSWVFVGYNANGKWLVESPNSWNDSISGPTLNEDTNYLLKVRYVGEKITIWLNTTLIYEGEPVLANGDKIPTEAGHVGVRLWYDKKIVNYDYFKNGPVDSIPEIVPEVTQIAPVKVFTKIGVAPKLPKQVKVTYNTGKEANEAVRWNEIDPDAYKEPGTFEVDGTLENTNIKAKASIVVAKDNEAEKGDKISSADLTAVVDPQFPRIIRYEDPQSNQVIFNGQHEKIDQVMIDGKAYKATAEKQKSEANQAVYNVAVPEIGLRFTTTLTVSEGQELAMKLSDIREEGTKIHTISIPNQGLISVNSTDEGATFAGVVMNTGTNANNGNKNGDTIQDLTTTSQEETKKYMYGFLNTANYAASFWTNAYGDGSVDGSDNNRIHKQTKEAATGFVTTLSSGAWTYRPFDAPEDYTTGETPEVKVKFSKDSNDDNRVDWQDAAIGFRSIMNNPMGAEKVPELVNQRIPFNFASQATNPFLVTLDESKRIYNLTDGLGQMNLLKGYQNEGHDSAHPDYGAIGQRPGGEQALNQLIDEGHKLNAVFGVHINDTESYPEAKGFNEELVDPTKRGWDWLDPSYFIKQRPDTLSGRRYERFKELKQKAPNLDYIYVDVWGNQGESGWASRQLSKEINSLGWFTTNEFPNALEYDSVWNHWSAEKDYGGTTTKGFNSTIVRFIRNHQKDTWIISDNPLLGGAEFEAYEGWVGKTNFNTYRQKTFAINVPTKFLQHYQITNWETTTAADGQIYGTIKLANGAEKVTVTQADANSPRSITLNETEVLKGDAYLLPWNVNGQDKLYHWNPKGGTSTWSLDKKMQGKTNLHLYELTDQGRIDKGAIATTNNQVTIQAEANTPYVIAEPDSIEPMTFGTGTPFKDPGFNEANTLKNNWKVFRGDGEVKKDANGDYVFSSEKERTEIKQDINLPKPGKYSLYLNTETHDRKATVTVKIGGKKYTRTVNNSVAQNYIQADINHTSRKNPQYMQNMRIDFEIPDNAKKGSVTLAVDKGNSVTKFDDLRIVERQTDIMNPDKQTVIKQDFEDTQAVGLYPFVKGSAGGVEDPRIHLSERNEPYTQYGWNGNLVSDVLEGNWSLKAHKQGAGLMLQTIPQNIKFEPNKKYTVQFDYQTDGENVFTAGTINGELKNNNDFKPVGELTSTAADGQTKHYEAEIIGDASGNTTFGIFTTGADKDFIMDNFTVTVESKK
The experiment in a line: steady-state kinetics, pNP release at […] nm. Particulars: 50 mM sodium phosphate pH 7.5, 5 mM MgCl2, 25°C.

A further series addresses EngSP (Streptococcus pneumoniae, UniProt Q2MGH6). Description: steady-state kinetics, pNP release at […] nm. Particulars: 50 mM sodium phosphate pH 7.5, 5 mM MgCl2, 25°C. In kind it is biochemical.
The next series concerns the target T2, EngPA (Cutibacterium acnes, UniProt A0ABM7H013).
T2 sequence (A0ABM7H013 1-1321): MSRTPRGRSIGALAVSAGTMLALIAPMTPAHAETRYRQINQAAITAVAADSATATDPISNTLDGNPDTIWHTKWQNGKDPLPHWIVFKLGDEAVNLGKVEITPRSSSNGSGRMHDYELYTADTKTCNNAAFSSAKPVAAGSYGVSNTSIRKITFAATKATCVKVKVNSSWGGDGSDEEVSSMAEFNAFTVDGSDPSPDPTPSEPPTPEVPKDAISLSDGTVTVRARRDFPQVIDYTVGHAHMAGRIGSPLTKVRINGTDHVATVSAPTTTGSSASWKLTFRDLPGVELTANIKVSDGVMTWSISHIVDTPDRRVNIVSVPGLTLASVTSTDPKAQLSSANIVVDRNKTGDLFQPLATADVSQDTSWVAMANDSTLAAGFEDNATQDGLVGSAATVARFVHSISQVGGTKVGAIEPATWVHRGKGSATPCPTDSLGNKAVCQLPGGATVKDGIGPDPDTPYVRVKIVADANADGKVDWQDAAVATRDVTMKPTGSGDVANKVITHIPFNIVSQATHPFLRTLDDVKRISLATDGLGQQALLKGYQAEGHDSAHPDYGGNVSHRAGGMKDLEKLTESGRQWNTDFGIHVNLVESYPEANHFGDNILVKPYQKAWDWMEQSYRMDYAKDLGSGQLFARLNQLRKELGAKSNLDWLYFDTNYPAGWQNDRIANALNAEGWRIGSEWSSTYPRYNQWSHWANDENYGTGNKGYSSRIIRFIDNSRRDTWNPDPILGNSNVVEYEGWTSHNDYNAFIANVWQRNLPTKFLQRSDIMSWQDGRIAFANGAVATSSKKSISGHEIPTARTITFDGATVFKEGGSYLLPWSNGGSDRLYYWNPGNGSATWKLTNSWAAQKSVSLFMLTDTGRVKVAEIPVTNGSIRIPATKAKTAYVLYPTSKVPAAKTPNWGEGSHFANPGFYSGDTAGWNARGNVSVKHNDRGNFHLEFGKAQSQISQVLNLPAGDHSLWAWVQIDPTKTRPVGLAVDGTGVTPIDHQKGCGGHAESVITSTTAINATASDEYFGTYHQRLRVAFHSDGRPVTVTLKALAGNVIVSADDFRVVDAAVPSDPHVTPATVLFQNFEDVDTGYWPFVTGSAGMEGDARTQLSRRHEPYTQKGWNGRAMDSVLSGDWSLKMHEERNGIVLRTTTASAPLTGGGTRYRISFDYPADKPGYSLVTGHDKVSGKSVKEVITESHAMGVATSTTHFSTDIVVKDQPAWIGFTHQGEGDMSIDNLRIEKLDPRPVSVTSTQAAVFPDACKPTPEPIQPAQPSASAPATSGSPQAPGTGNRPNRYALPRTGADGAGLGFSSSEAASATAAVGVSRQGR
Description: steady-state kinetics, pNP release at […] nm. The class given is biochemical. The following applies: 50 mM sodium phosphate pH 7.5, 5 mM MgCl2, 25°C.

Substrate in the series “purified protein”: CC(=O)N[C@H]1[C@H](O[C@H]2[C@@H](O)[C@@H](CO)O[C@H](Oc3ccc([N+](=O)[O-])cc3)[C@@H]2NC(C)=O)O[C@H](CO)[C@@H](O)[C@@H]1O
Description: purified protein. The following applies: 50 mM sodium phosphate pH 7.5, 5 mM MgCl2, 25°C.

Here are results for 2 molecules from publication PMC2553423 (Glycobiology, 2008).

By Km is commonly meant the substrate concentration at which the rate is half of its maximum. In general, kcat refers to the number of substrate molecules converted per active site and unit of time at saturation.

As for `CC(=O)N[C@H]1[C@@H](Oc2ccc([N+](=O)[O-])cc2)O[C@H](CO)[C@H](O)[C@@H]1O[C@@H]1O[C@H](CO)[C@H](O)[C@H](O)[C@H]1O` [Galβ1,3GalNAcα1pNP], the Km in the series with EngAL amounted to 33.9 µM; on EngCP, 70.9 µM; at EngEF, 47.9 µM; on EngSP, 40.4 µM; at EngPA, 3.78 µM.

B1: EngEF (Enterococcus faecalis V583) (protein)
chain: T1 sequence (Q833X5 1-1324)
B1: in “purified protein”, the Km was determined as 20.03 µM and the kcat worked out at 9.43 s⁻¹.
